Each molecule was assayed against T1, mGluR5 (Homo sapiens, UniProt P41594) (assay: inhibition of the glutamate induced elevation of intracellular Ca2+-concentration). Details: inhibition of glutamate induced elevation of intracellular Ca2+ at a concentration of 10 μM; read-out: mGluR5 Activity inh. at 10 μM [%].
T1 construct: expressed in transfected cells
Type: cell-based
Source text: This can be determined in vitro for example at recombinant human metabotropic glutamate receptors, especially PLC-coupled subtypes thereof such as mGluR5, using different procedures like, for example, measurement of the inhibition of the agonist induced elevation of intracellular Ca^2+ concentration in accordance with L. P. Daggett et al., Neuropharm. Vol. 34, pages 871-886 (1995), P. J. Flor et al., J. Neurochem. Vol. 67, pages 58-63 (1996) or by determination to what extent the agonist induced elevation of the inositol phosphate turnover is inhibited as described by T. Knoepfel et al., Eur. J. Pharmacol. Vol. 288, pages 389-392 (1995), L. P. Daggett et al., Neuropharm. Vol. 34, pages 871-886 (1995) and references cited therein. Isolation and expression of human mGluR subtypes are described in U.S. Pat. No. 5,521,297. Selected agents of the invention show IC50 values for the inhibition of the agonist (e.g. glutamate or quisqualate) induced elevation of intracellular Ca2+ concentration or the agonist (e.g. glutamate or quisqualate) induced inositol phosphate turnover, measured in recombinant cells expressing hmGluR5a of about 1 nM to about 50 μM.
Activity of compounds of the present invention was examined by measurement of the inhibition of the glutamate induced elevation of intracellular Ca^2+-concentration following similar methods than those described in L. P. Daggett et al., Neuropharm. Vol. 34, pages 871-886 (1995), P. J. Flor et al., J. Neurochem. Vol. 67, pages 58-63 (1996).
The table below represents percentages of inhibition of the glutamate induced elevation of intracellular Ca^2+-concentration at a concentration of 10 μM.

T1 sequence (P41594 21-1180 isoform P41594-2 limits assumed): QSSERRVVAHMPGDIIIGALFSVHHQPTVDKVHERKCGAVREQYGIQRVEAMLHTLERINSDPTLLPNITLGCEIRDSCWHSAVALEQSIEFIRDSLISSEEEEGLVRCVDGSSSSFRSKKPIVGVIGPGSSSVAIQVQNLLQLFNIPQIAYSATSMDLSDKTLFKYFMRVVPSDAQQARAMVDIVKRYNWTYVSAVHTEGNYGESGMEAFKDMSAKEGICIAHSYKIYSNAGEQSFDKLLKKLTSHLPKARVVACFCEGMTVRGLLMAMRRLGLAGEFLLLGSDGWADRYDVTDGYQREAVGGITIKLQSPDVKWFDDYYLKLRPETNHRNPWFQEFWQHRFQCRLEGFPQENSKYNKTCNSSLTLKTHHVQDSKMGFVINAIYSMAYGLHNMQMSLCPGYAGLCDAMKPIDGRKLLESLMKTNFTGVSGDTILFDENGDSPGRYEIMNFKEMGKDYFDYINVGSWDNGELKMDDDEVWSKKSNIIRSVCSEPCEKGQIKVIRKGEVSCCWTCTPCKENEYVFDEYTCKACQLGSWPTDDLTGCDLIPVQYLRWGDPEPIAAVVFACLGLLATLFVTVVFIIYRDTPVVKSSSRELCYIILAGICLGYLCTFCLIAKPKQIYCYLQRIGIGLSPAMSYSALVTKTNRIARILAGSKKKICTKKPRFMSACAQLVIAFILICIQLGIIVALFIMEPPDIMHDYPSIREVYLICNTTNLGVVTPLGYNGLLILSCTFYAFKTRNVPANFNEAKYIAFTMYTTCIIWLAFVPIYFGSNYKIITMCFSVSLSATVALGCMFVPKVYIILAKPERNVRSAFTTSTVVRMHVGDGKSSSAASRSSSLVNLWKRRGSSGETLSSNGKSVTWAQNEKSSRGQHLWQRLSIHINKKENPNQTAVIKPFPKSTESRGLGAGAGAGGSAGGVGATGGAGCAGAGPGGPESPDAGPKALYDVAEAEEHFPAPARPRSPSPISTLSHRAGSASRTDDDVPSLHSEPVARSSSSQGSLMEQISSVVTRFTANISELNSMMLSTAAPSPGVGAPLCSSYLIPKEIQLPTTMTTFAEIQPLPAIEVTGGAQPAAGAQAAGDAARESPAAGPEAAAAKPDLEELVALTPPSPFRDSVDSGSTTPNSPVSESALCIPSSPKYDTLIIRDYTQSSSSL

inhibition at 10 µM [%]	SMILES
97	CCn1cc(C(C)(C)C)nc1-c1cnc(Nc2ccc(Cl)cc2)c(Cl)c1 [Compound 39, [5-(4-tert-Butyl-1-ethyl-1H-imidazol-2-yl)-3-chloro-pyridin-2-yl]-(4-chloro-phenyl)-amine]
100	CCCn1cc(C(C)(C)C)nc1-c1cnc(Nc2ccc(Cl)cc2)c(Cl)c1 [Compound 40, [5-(4-tert-Butyl-1-propyl-1H-imidazol-2-yl)-3-chloro-pyridin-2-yl]-(4-chloro-phenyl)-amine]
79	CCCCn1cc(C(C)(C)C)nc1-c1cnc(Nc2ccc(Cl)cc2)c(Cl)c1 [Compound 41, [5-(1-Butyl-4-tert-butyl-1H-imidazol-2-yl)-3-chloro-pyridin-2-yl]-(4-chloro-phenyl)-amine]
94	CCCn1c(-c2cnc(Nc3ccc(Cl)cc3)c(Cl)c2)nc(C)c1C [Compound 42, [3-Chloro-5-(4,5-dimethyl-1-propyl-1H-imidazol-2-yl)-pyridin-2-yl]-(4-chloro-phenyl)-amine]
37	CCc1c(C)n(CC)c(-c2cnc(Nc3ccc(Cl)cc3)c(Cl)c2)[n+]1CC [Compound 43, 2-[5-Chloro-6-(4-chloro-phenylamino)-pyridin-3-yl]-1,3,5-triethyl-4-methyl-3H-imidazol-1-ium iodide]
98	CCCCc1cnnn1-c1cnc(Nc2ccc(Cl)cc2)c(Cl)c1 [Compound 44, [5-(5-Butyl-[1,2,3]triazol-1-yl)-3-chloro-pyridin-2-yl]-(4-chloro-phenyl)-amine]
89	CCCc1cnnn1-c1cnc(Nc2ccc(Cl)cc2)c(Cl)c1 [Compound 45, (4-Chloro-phenyl)-[3-chloro-5-(5-propyl-[1,2,3]triazol-1-yl)-pyridin-2-yl]-amine]
68	CCCc1nn[nH]c1-c1cnc(Nc2ccc(Cl)cc2)c(Cl)c1 [Compound 46, (4-Chloro-phenyl)-[3-chloro-5-(5-propyl-3H-[1,2,3]triazol-4-yl)-pyridin-2-yl]-amine]
34	CC(C)c1nccn1-c1cnc(Nc2ccc(Cl)cc2)c(Cl)c1 [Compound 47, [3-Chloro-5-(2-isopropyl-imidazol-1-yl)-pyridin-2-yl]-(4-chloro-phenyl)-amine]
32	Cc1cncn1-c1cnc(Nc2ccc(Cl)cc2)c(Cl)c1 [Compound 48, [3-Chloro-5-(5-methyl-imidazol-1-yl)-pyridin-2-yl]-(4-chloro-phenyl)-amine]
35	Cc1cn(-c2cnc(Nc3ccc(Cl)cc3)c(Cl)c2)cn1 [Compound 49, [3-Chloro-5-(4-methyl-imidazol-1-yl)-pyridin-2-yl]-(4-chloro-phenyl)-amine]

Reference: patent publication US20090286827A1, “NOVEL BI-ARYL AMINES” (priority 2006, published 2009)
